Data from article PMC9303275, “Direct adenylation from 5′-OH-terminated oligonucleotides by a fusion enzyme containing Pfu RNA ligase and T4 polynucleotide kinase” (Nucleic Acids Research, 2022).

Legend:
Pfu RNA ligase (Pfu Rnl) = molecular target: T1, Pfu RNA ligase (Pfu Rnl) (Pyrococcus furiosus, UniProt Q8U3V2); test: oligonucleotide adenylation, denaturing urea-PAGE, SYBR Gold; type: biochemical
T1 construct: gene PF0353; full length, 379 aa, N-terminal 8xHis tag (not reported cut), codon optimised, pET28a, E. coli BL21(DE3), ~42 kDa, mainly homodimer
T1 sequence (Q8U3V2 1-379): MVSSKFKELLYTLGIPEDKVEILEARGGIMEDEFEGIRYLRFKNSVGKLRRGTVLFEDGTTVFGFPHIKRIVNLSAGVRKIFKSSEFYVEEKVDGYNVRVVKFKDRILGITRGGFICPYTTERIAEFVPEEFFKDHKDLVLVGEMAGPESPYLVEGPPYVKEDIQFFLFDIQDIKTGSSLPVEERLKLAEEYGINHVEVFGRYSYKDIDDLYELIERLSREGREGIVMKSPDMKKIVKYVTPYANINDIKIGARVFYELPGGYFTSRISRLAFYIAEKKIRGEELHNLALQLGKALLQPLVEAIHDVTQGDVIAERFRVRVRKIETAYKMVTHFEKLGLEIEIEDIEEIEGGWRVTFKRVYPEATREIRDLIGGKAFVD

Mth RNA ligase (Mth Rnl) = molecular target: T2, Mth RNA ligase (Mth Rnl) (Methanothermobacter thermautotrophicus, UniProt O27289); test: oligonucleotide adenylation, denaturing urea-PAGE; type: biochemical; conditions: 5'-phosphorylated 55-nt ssDNA; commercial kit protocol
T2 construct: gene MTH_1221; commercial enzyme (New England Biolabs, 5' DNA adenylation kit)
T2 sequence (O27289 1-381): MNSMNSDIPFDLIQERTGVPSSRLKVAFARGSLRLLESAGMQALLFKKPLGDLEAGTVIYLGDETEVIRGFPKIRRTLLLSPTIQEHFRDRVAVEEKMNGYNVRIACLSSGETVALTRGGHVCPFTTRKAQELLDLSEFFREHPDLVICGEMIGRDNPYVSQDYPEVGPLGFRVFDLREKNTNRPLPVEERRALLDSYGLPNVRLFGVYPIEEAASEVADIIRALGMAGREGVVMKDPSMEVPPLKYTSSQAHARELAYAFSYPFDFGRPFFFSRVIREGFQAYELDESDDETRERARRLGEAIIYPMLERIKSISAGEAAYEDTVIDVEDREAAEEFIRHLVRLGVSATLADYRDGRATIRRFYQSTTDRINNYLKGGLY

[1] = molecular target: the molecule itself; test: SEC; gel filtration on HiLoad 26/600 Superdex 200 pg, 50 mM phosphate, 150 mM NaCl, pH 7.0, 2.6 ml/min; elution volumes compared with molecular weight standards; each protein loaded separately

## Nc1ncnc2c1ncn2[C@@H]1O[C@H](COP(=O)(O)OP(=O)(O)O)[C@@H](O)[C@H]1O [ADP]
Pfu RNA ligase (Pfu Rnl); 5'-phosphorylated 17-nt and 55-nt ssDNA, 5 mM MgCl2, 70 mM Tris-HCl pH 7.0, 80 °C, weak activity
  oligonucleotide adenylation, denaturing urea-PAGE, SYBR Gold: weak catalytic activity with ADP and almost no catalytic activity with AMP

## Nc1ncnc2c1ncn2[C@@H]1O[C@H](COP(=O)(O)OP(=O)(O)OP(=O)(O)O)[C@@H](O)[C@H]1O [ATP]
Mth RNA ligase (Mth Rnl)
  oligonucleotide adenylation, denaturing urea-PAGE: As expected, both enzymes achieved near complete conversion
Pfu RNA ligase (Pfu Rnl); 5'-phosphorylated ssDNA, 5 mM MgCl2, 70 mM Tris-HCl pH 7.0, 5 mM DTT, 80 °C, 30 min
  oligonucleotide adenylation, denaturing urea-PAGE, SYBR Gold: Pfu Rnl showed the best activity with ATP as the adenosyl source

B1: Pfu RNA ligase (enzyme, Pyrococcus furiosus, UniProt Q8U3V2 1-379, looked up)
chain: T1 sequence (Q8U3V2 1-379)
notes: Pfu RNA ligase (Pfu Rnl) of Pyrococcus furiosus, encoded by the PF0353 gene, 379 amino acids, full length; No tag removal is described; also called Pfu Rnl; Q8U3V2 protein; source: E. coli BL21(DE3), purified (HisTrap FF, HiTrap Heparin HP)
[1]
  stoichiometry N: 2
